# Source: US5516936A, “Inhibitors of kynureninase” (University of Georgia Research Foundation, Inc., priority 1993, dated 1996)
# Like-named read-outs stand apart in the source and are kept apart here.
# Tests used:
# [1] = target: T1, Kynureninase (Pseudomonas fluorescens, UniProt P83788); assay: Competitive inhibition of kynureninase by S-aryl cysteines and S-aryl cysteine sulfones; format: biochemical; settings: for Ki: Table 1; for inhibition (in words): bacterial kynureninase; for fold decrease in Ki value: relative to unsubstituted S-phenyl-L-cysteine
# T1 construct: Bacterial kynureninase was prepared from cells of Pseudomonas fluorescens; endogenous in cells; partially purified by DEAE-cellulose and ammonium sulfate
# T1 sequence (P83788 1-416): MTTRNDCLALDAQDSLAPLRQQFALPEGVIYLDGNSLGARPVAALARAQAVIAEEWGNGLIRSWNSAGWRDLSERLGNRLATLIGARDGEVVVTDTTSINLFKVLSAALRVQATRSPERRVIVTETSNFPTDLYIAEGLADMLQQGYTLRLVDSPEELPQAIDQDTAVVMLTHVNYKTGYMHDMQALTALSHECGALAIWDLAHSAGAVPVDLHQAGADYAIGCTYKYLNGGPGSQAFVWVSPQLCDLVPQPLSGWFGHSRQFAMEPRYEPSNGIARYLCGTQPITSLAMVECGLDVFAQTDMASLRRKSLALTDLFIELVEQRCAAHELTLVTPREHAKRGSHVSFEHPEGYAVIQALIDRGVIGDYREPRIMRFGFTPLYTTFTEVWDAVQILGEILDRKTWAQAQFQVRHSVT
# Description: Bacterial kynureninase was prepared from cells of Pseudomonas fluorescens (ATCC 11250, for example) essentially as described by .Hayaishi and Stanier (1952) J. Biol. Chem. 195:735-740. Cells were grown on a minimal medium containing 0.1% L-tryptophan as the sole carbon and nitrogen source.
# From 100 1 of medium, grown for 18 h at 30° C. 230 g of wet cell paste was obtained. The cells were suspended in 1 of 0.01M potassiumphosphate, pH 7.0, and disrupted by 2 passages through a Manton-Gaulin homogenizer. After centrifugation of the cell extract for 1 h at 10000 g, the enzyme was partially purified by ion-exchange chromatography on DEAE-cellulose and ammonium sulfate precipitation.
# Kynureninase activity was measured at 25° C. by following the decrease in absorbance at 360 nm (ε=-4500M^-1 cm^-1). A typical assay mixture contained 0.4 mM L-kynurenine in 0.04M potassium phosphate, pH 7.8, containing 40 μM pyridoxal-5'-phosphate, at 25° C. The reactions of S-aryl cysteines and S-aryl cysteine sulfones with kynureninase were performed using a spectrophotometric coupled assay with lactate dehydrogenase and NADH, by monitoring a decrease in absorbance due to pyruvate formation. A typical assay mixture contained 30 μl lactate dehydrogenase solution (2 mg/ml), 0.1 mM NADH, 40 μM pyridoxal-5'-phosphate, 0.04M tris.HCl buffer, pH 7.8, with varying concentrations of the compounds. The competitive inhibition of these compounds was measured by variation of L-kynurenine concentrations at several fixed values of the inhibitor. Km and Vmax values were calculated by fitting of initial rate data to the Michaelis-Menten equation with ENZFITTER (Elsevier) on a Z-286 personal computer. KI values were determined from the equation:
# v=Vmax[S]/ (Km (1+[I]/Ki)+[S]
# [2] = target: T2, rat liver kynureninase (Rattus norvegicus, UniProt P70712); settings: Wiss and Fuchs (1950); cited from earlier work
# T2 construct: host or cells: rat liver
# T2 sequence (P70712 1-464): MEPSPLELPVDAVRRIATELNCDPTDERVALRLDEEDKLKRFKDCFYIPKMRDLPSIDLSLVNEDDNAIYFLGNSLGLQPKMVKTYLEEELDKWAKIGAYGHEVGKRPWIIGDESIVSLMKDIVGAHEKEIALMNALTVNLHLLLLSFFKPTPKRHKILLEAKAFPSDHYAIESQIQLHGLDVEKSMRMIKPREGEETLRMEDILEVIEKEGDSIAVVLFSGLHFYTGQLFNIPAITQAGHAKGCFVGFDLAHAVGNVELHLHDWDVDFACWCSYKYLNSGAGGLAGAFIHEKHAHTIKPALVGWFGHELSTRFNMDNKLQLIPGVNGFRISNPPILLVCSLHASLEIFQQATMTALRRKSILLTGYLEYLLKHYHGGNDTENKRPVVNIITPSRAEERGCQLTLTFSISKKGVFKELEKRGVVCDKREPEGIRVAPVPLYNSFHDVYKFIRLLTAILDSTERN
# [3] = system: bacterial kynureninase; settings: Hayaishi (1955); cited from earlier work
# [4] = system: kynureninase of P. fluorescens; settings: cited from earlier work
# [5] = system: bacterial kynureninase; settings: Kishore (1984); cited from earlier work
# [6] = system: rat renal C-S lyase; settings: kidney slice methodology; cited from earlier work
# [7] = system: bacterial kynureninase; settings: cited from earlier work; for inhibition of bacterial kynureninase (in words): Tanizawa and Soda (1979)
# [8] = competitive inhibition vs L-kynurenine, pH 7.8, 25° C., footnote 1: 0.07 is an upper limit, read-out: Ki
structure (smiles),measurement,setting,value
N[C@@H](CS(=O)(=O)c1ccccc1[N+](=O)[O-])C(=O)O,Ki,[1]; [8],23 µM
N[C@@H](CS(=O)(=O)c1ccc([N+](=O)[O-])cc1)C(=O)O,Ki,[1]; [8],12 µM
Nc1ccc(SC[C@H](N)C(=O)O)cc1,Ki,[1]; [8],140 µM
Nc1ccc(S(=O)(=O)C[C@H](N)C(=O)O)cc1,Ki,[1]; [8],8.5 µM
CC(=O)CC(N)C(=O)O (centres unmarked) [2-aminolevulinic acid],reaction with rat liver kynureninase to produce alanine (in words),[2],reacted with rat liver kynureninase
"Nc1c(O)cccc1C(=O)C[C@H](N)C(=O)O [3-hydroxy-L-kynurenine, α,2-diamino-3-hydroxy-γ-oxobenzenebutanoic acid]",substrate of bacterial kynureninase (in words),[3],substrates
same,Km,[4]; Tanizawa and Soda (1979),200 µM
same,substrate of kynureninase (in words),[4]; Tanizawa and Soda (1979),substrates
same,reaction with rat liver kynureninase to produce alanine (in words),[2],reacted with rat liver kynureninase
COc1cccc(C(=O)C[C@H](N)C(=O)O)c1N [3-methoxy-L-kynurenine],substrate of bacterial kynureninase (in words),[3],do not react with bacterial kynureninase
Nc1cc(F)ccc1C(=O)C[C@H](N)C(=O)O [4-fluoro-L-kynurenine],substrate of kynureninase (in words),[4]; Tanizawa and Soda (1979),substrates
Nc1ccc(F)cc1C(=O)C[C@H](N)C(=O)O [5-fluoro-L-kynurenine],substrate of kynureninase (in words),[4]; Tanizawa and Soda (1979),substrates
Nc1ccc(O)cc1C(=O)C[C@H](N)C(=O)O [5-hydroxy-L-kynurenine],substrate of bacterial kynureninase (in words),[3],substrates
same,substrate of kynureninase (in words),[4]; Tanizawa and Soda (1979),substrates
Cc1ccc(N)c(C(=O)C[C@H](N)C(=O)O)c1 [5-methyl-L-kynurenine],substrate of kynureninase (in words),[4]; Tanizawa and Soda (1979),substrates
Nc1ccccc1C(=O)C[C@@H](N)C(=O)O [D-kynurenine],substrate of kynureninase (in words),[4]; Tanizawa and Soda (1979),not substrates
NC(=O)C[C@H](N)C(=O)O [L-asparagine],substrate of kynureninase (in words),[4]; Tanizawa and Soda (1979),not substrates
"Nc1ccccc1C(=O)C[C@H](N)C(=O)O [L-kynurenine, α,2-diamino-γ-oxobenzenebutanoic acid]",Km,[4]; Tanizawa and Soda (1979),35 µM
same,reaction with rat liver kynureninase to produce alanine (in words),[2],reacted with rat liver kynureninase
N[C@@H](COS(=O)(=O)O)C(=O)O [L-serine O-sulfate],inactivation of kynureninase (in words),[5],inactivated kynureninase
same,reaction with kynureninase (in words),[5],react with kynureninase to give pyruvate and ammonia
N[C@@H](CC(=O)c1ccccc1NC=O)C(=O)O [N'-formyl-L-kynurenine],substrate of bacterial kynureninase (in words),[3],not a substrate
same,substrate of kynureninase (in words),[4]; Tanizawa and Soda (1979),substrates
same,Km,[4]; bacterial kynureninase,2200 µM
"CC(=O)N[C@@H](CSc1c([N+](=O)[O-])cccc1[N+](=O)[O-])C(=O)O [N-acetyl-S-(2,6-dinitrophenyl)-L-cysteine]",inhibition of C-S lyase (in words),[6],inhibit
CC(=O)N[C@@H](CSc1ccc([N+](=O)[O-])cc1Cl)C(=O)O [N-acetyl-S-(2-chloro-4-nitrophenyl)-L-cysteine],inhibition of C-S lyase (in words),[6],inhibit
"CC(=O)N[C@@H](CSc1ccc([N+](=O)[O-])c([N+](=O)[O-])c1)C(=O)O [N-acetyl-S-(3,4-dinitrophenyl)-L-cystsine]",inhibition of C-S lyase (in words),[6],inhibit
Nc1ccccc1S(=O)(=O)C[C@H](N)C(=O)O [S-(2-aminophenyl)-L-cysteine sulfone],Ki,[1]; [8],≤ 0.07 µM
same,Ki,[1]; read-out: Ki,~0.07 µM
same,inhibition (in words),[1],considerably more potent inhibitor of kynureninase
Nc1ccccc1SC[C@H](N)C(=O)O [S-(2-aminophenyl)-L-cysteine],Ki,[1]; [8],2.5 µM
same,Ki,[1]; read-out: Ki value,2.2 µM
same,fold decrease in Ki value,[1],318 fold
N[C@@H](CSC(=O)c1ccccc1)C(=O)O [S-benzoyl-L-cystsine],substrate of kynureninase (in words),[4]; Tanizawa and Soda (1979),not substrates
N[C@@H](CS(=O)(=O)c1ccccc1)C(=O)O [S-phenyl-L-cysteine sulfone],Ki,[1]; [8],3.9 µM
same,Ki,[1]; read-out: Ki value,3.9 µM
same,fold decrease in Ki value,[1],180 fold
N[C@@H](CSc1ccccc1)C(=O)O [S-phenyl-L-cysteine],Ki,[1]; [8],700 µM
same,Ki,[1]; read-out: Ki value,700 µM
same,inhibition (in words),[1],very weak inhibitor
O=Cc1ccccc1 [benzaldehyde],inhibition of bacterial kynureninase (in words),[7],inhibitors
"Nc1ccccc1C(O)C[C@H](N)C(=O)O (stereo partly drawn) [dihydrokynurenine, α,2-diamino-γ-hydroxybenzenebutanoic acid]",Km,[4]; Tanizawa and Soda (1979),67 µM
same,Vmax / reactivity relative to L-kynurenine,[4]; Tanizawa and Soda (1979),about 65%
same,substrate of kynureninase (in words),[4]; Tanizawa and Soda (1979),substrate
CC(=O)OC[C@H](N)C(=O)O [o-acetyl-L-serine],inactivation of kynureninase (in words),[5],inactivated kynureninase
same,reaction with kynureninase (in words),[5],react with kynureninase to give pyruvate and ammonia
CC(=O)c1ccccc1N [o-aminoacetophenone],inhibition of bacterial kynureninase (in words),[7],inhibitors
Nc1ccccc1C=O [o-aminobenzaldehyde],inhibition of bacterial kynureninase (in words),[7],strongly inhibited
same,Ki,[7]; non-competitive inhibition,6.5 µM
O=Cc1ccccc1[N+](=O)[O-] [o-nitrobenzaldehyde],inhibition of bacterial kynureninase (in words),[7],inhibitors
CC(O)CC(N)C(=O)O (stereo not drawn) [α-amino-γ-hydroxypentanoic acid],reaction with rat liver kynureninase to produce alanine (in words),[2],reacted with rat liver kynureninase
N[C@@H](CC(=O)c1cccc(O)c1)C(=O)O [β-(m-hydroxybenzoyl)-L-alanine],substrate of bacterial kynureninase (in words),[3],do not react with bacterial kynureninase
Nc1ccccc1C(=O)CCC(=O)O [β-(o-aminobenzoyl)propanoic acid],substrate of bacterial kynureninase (in words),[3],do not react with bacterial kynureninase
N[C@@H](CC(=O)c1ccccc1O)C(=O)O [β-(o-hydroxybenzoyl)-L-alanine],substrate of bacterial kynureninase (in words),[3],substrates
N[C@@H](CC(=O)c1ccccc1[N+](=O)[O-])C(=O)O [β-(o-nitrobenzoyl)-L-alanine],substrate of bacterial kynureninase (in words),[3],do not react with bacterial kynureninase
same,reaction with rat liver kynureninase to produce alanine (in words),[2],did not
Nc1ccc(C(=O)C[C@H](N)C(=O)O)cc1 [β-(p-aminobenzoyl)-L-alanine],substrate of bacterial kynureninase (in words),[3],do not react with bacterial kynureninase
N[C@@H](CC(=O)c1ccccc1)C(=O)O [β-benzoyl-L-alanine],substrate of bacterial kynureninase (in words),[3],substrates
same,substrate of kynureninase (in words),[4]; Tanizawa and Soda (1979),substrates
same,Km,[4]; bacterial kynureninase,160 µM
same,reaction with rat liver kynureninase to produce alanine (in words),[2],reacted with rat liver kynureninase
O=C(O)CCC(=O)c1ccccc1 [β-benzoylpropanoic acid],substrate of bacterial kynureninase (in words),[3],do not react with bacterial kynureninase
N[C@@H](CCl)C(=O)O [β-chloro-L-alanine],inactivation of kynureninase (in words),[5],inactivated kynureninase
same,reaction with kynureninase (in words),[5],react with kynureninase to give pyruvate and ammonia
N#CC[C@H](N)C(=O)O [β-cyano-L-alanine],inactivation of kynureninase (in words),[5],inactivated kynureninase
same,reaction with kynureninase (in words),[5],react with kynureninase to give pyruvate and ammonia
CC(O)C[C@H](N)C(=O)O (stereo partly drawn) [γ-methyl-L-homoserine],reaction with rat liver kynureninase to produce alanine (in words),[2],reacted with rat liver kynureninase
N[C@@H](CC(O)c1ccccc1)C(=O)O (stereo partly drawn) [γ-phenyl-L-homoserine],reaction with rat liver kynureninase to produce alanine (in words),[2],reacted with rat liver kynureninase
